Laboratory results: patent US8592594B2, “Tetrahydro-quinoline derivatives” (Hoffmann-La Roche Inc., priority 2010, dated 2013)

Each compound was assayed on recombinant AMPK proteins (α1β1γ1, α2β1γ1, α1(1-335), α1(1-394) or α2(1-394)) (assay: Scintillation Proximity Assay (SPA), AMPK activation). Conditions: effective concentration of activator for 50% of maximal enzyme activity; 50 nM AMPK, 2 μM ATP, 2 μM biotin-SAMS, 30° C., 2 hours.
Format: biochemical, human
Method: Recombinant human AMPK α1β1γ1, α2β1γ1 or AMPK α subunit truncations α1(1-335), α1(1-394) and α2(1-394) were constructed, expressed and purified as described previously (Pang, T., Zhang, Z. S., Gu, M., Qiu, B. Y., Yu, L. F., Cao, P. R., Shao, W., Su, M. B., Li, J. Y., Nan, F. J., and Li, J. (2008). Rat liver AMPK heterotrimer enzyme was obtained from Upstate (Billerica, Mass., U.S.A.).
Scintillation Proximity Assay
Before the Scintillation Proximity Assay (SPA) assay, 200 nM recombinant AMPK proteins (α1β1γ1, α2β1γ1, α1(1-335), α1(1-394) or α2(1-394)) were fully phosphorylated as described previously (Pang et al., 2008). SPA reactions were performed in 96-well plates at a final volume of 50 μL containing 20 mM Tris-HCl pH 7.5, 5 mM MgCl2, 1 mM DTT, 2 μM biotin-SAMS, 2 μM ATP, 0.2 μCi/well [γ-^33P]ATP, and various amount of activator. Reactions were initiated by the addition of 50 nM recombinant AMPK proteins to the reaction solutions and incubated at 30° C. for 2 hours. After that, reactions were terminated by the addition of 40 μL stop solution containing 80 μg streptavidin-coated SPA beads per well, 50 mM ED TA, 0.1% Triton X-100 in PBS, pH 7.5 and incubated for 1 hour. Finally, a 160 μL suspension solution containing 2.4 M CsCl, 50 mM EDTA, and 0.1% Triton X-100 in PBS (pH 7.5) was added to the reaction solution to suspend SPA beads completely. SPA signals were determined with a Wallac MicroBeta plate counter (PerkinElmer) 30 min later for calculation of the amount of product formed. The amount of products formed in 2 hour was plotted against activator concentrations to determine the effective concentration of the activator (EC50) required for 50% of maximal enzyme activity.

SMILES	EC50
CC1(C)CC(c2cccc(N3CCOCC3)c2)Nc2ccc(C(=O)O)cc21 (stereo not drawn) [Example 22, 4,4-Dimethyl-2-(3-morpholin-4-yl-phenyl)-1,2,3,4-tetrahydro-quinoline-6-carboxylic acid]	5350 nM
O=C(O)c1ccc2c(c1)C1(CC1)CC(c1cc(Cl)ccc1F)N2 (stereo not drawn) [Example 5, 2-(5-Chloro-2-fluoro-phenyl)-spiro(cyclopropane-1,4′-1′,2′,3′,4′-tetrahydroquinoline)-6-carboxylic acid]	1240 nM
CN1CCN(C(=O)c2ccc3c(c2)C2(CCCC2)CC(c2cc(F)ccc2Br)N3)CC1 (stereo not drawn) [Example 58, [2-(2-Bromo-5-fluoro-phenyl)-spiro(cyclopentane-1,4′-1′,2′,3′,4′-tetrahydroquinolin)-6-yl]-(4-methyl-piperazin-1-yl)-methanone]	3740 nM
O=C(c1ccc2c(c1)C1(CC1)CC(c1cc(F)ccc1Br)N2)N1CCNCC1 (stereo not drawn) [Example 48]	2100 nM
Cc1ccc(F)cc1C1CC2(CC2)c2cc(C(=O)O)ccc2N1 (stereo not drawn) [Example 1, 2-(5-Fluoro-2-methyl-phenyl)-spiro(cyclopropane-1,4′-1′,2′,3′,4′-tetrahydroquinoline)-6-carboxylic acid]	2070 nM
O=C(NC1CCC1)c1ccc2c(c1)C1(CC1)CC(c1cc(Cl)ccc1Cl)N2 (stereo not drawn) [Example 39, 2-(2,5-Dichloro-phenyl)-spiro(cyclopropane-1,4′-1′,2′,3′,4′-tetrahydroquinoline)-6-carboxylic acid cyclobutylamide]	4950 nM
